In patent US20140329863A1 (priority 2011, published 2014):
Like-named read-outs stand apart in the source and are kept apart here.

Legend:
[1] = test system: PrP^Sc in dividing ScN2a-cl3 cells; format: cell-based, mouse
[2] = test system: PrP^Sc in ScN2a-cl3 cells; format: cell-based, mouse; conditions: Western immunoblots
N2a-cl3 cells = conditions: mouse
in vitro = conditions: mouse
[3] = Single-dose pharmacokinetics in FVB mice (oral gavage, IV); conditions: single oral dose 10 mg/kg
[4] = read-out: EC50 (nM): ELISA, dividing ScN2a-cl3 cells
[5] = read-out: Potency (nM) ELISA (EC50), PrP^Sc ELISA, dividing ScN2a-cl3 cells
[6] = read-out: EC50 (nM): Western, ScN2a-cl3 cells
[7] = read-out: Potency (nM) Western (EC50), dividing ScN2a-cl3 cells

Row | Compound | EC50 [1, 4] [nM] | EC50 [1, 5] [nM] | EC50 [2, 6] [nM] | EC50 [2, 7] [nM] | EC50 (nM): Calcein (LC50 values from calcein assays) (N2a-cl3 cells) | CC50 (in vitro) [µM] | Brain/Plasma AUClast Ratio ([3]; FVB mice) | AUClast ± SD, Brain ([3]; two FVB mice, brain) [µM·h] | AUClast ± SD, Plasma ([3]; two FVB mice, plasma) [µM·h] | EC50 ([1]; read-out: Antiprion activity EC50, thienopyridine analogs) [nM]
1 | c1ccc2cc(-c3cn4ccsc4n3)ccc2c1 [IND-009413] | 6020 | 6020 | 2490 | 2490 | MW: 250.2 EC50 (nM): ELISA: 6015 Calcein: >10,000 Western: 2490 | > 10 | – | – | – | –
2 | CCc1ccc(-c2cn3cc(C)sc3n2)cc1 [IND-0009416] | 1780 | 1780 | 517 | 517 | MW: 242.3 EC50 (nM): ELISA: 1776 Calcein: >10,000 Western: 517 | > 10 | – | – | – | –
3 | CCc1ccc(-c2cn3ccccc3n2)cc1 [IND-0009417] | 9160 | 9160 | 4720 | 4720 | MW: 222.3 EC50 (nM): ELISA: 9158 Calcein: >10,000 Western: 4715 | > 10 | – | – | – | –
4 | CCc1ccc(-c2cn3cc(C)ccc3n2)cc1 [IND-0009419] | 709 | 709 | 265 | 285 | MW: 236.3 EC50 (nM): ELISA: 709 Calcein: >10,000 Western: 265 | > 10 | – | – | – | –
5 | CC(=O)c1ccc(N2CCN(Cc3cccnc3)CC2)cc1 [IND-0018629] | – | – | 886 | 886 | MW: 295.4 EC50 (nM): ELISA: 2943 Calcein: >10,000 Western: 886 | > 10 | – | – | – | –
6 | CC(=O)c1ccc(N2CCN(Cc3ccccc3)CC2)cc1 [IND-0019136] | 8680 | 8680 | 615 | 615 | MW: 294.4 EC50 (nM): ELISA: 8681 Calcein: >10,000 Western: 615 | > 10 | – | – | – | –
7 | c1cncc(-c2nc(-c3c[nH]c4ccccc34)cs2)c1 [IND-0024350] | 321 | 321 | 828 | 828 | MW: 277.3 EC50 (nM): ELISA: 321 Calcein: >10,000 Western: 828 | > 10 | – | – | – | –
8 | Cc1[nH]c2ccccc2c1-c1csc(-c2cccnc2)n1 [IND-0024352] | 2270 | 2270 | 1700 | 1700 | MW: 291.4 EC50 (nM): ELISA: 2267 Calcein: >10,000 Western: 1698 | > 10 | – | – | – | –
9 | COc1ccc(-c2cc(-c3ccc(OC)cc3O)[nH]n2)cc1 [IND-0025807] | 167 | 167 | 95 | 95 | MW: 296.3 EC50 (nM): ELISA: 167 Calcein: >10,000 Western: 95 | > 10 | – | – | – | –
10 | Cn1c(=N)n(CC(=O)c2ccc(Cl)cc2)c2ccccc21 [IND-0026326] | 5900 | 5900 | 4970 | 4970 | MW: 299.8 EC50 (nM): ELISA: 5900 Calcein: >10,000 Western: 4967 | > 10 | – | – | – | –
11 | COc1ccc(-c2cc(-c3ccc(C)cc3O)[nH]n2)cc1 [IND-0028801] | 245 | 245 | 117 | 117 | MW: 280.3 EC50 (nM): ELISA: 245 Calcein: >10,000 Western: 117 | > 10 | – | – | – | –
12 | CCOc1ccc(NC(=O)c2cc3ccccc3cc2O)cc1 [IND-0031751] | 156 | 156 | 42 | 42 | MW: 307.3 EC50 (nM): ELISA: 156 Calcein: >10,000 Western: 42 | > 10 | – | – | – | –
13 | COc1ccc(C(=O)Nc2ccc(-c3csc(C)n3)cc2)cc1 [IND-0033145] | 412 | 412 | 161 | 161 | MW: 324.4 EC50 (nM): ELISA: 412 Calcein: >10,000 Western: 161 | > 10 | – | – | – | –
14 | CN(C)CCNc1nc(-c2ccc(Cl)cc2)nc2ccccc12 [IND-0034921] | 3690 | 3690 | 2010 | 2010 | MW: 326.8 EC50 (nM): ELISA: 3693 Calcein: >10,000 Western: 2009 | > 10 | – | – | – | –
15 | COc1cccc(Nc2nc(N)c3ccccc3n2)c1 [IND-0035916] | 4020 | 4020 | 5990 | 5990 | MW: 266.3 EC50 (nM): ELISA: 4023 Calcein: >10,000 Western: 5987 | > 10 | – | – | – | –
16 | COc1cc(N)c(-c2ccc3cc(OC)c(OC)cc3n2)cc1OC [IND-0044355] | 2140 | 2140 | 1830 | 1830 | MW: 340.4 EC50 (nM): ELISA: 2143 Calcein: >10,000 Western: 1833 | > 10 | – | – | – | –
17 | Cn1c(=N)n(CC(=O)c2ccc(Br)cc2)c2ccccc21 [IND-0044723] | 1980 | 1980 | 1450 | 1450 | MW: 344.2 EC50 (nM): ELISA: 1983 Calcein: >10,000 Western: 1453 | > 10 | – | – | – | –
18 | CN1CCN(c2ccc(Nc3ccnc4cc(Cl)ccc34)cc2)CC1 [IND-0045193] | 1220 | 1220 | 2070 | 2070 | MW: 352.9 EC50 (nM): ELISA: 1220 Calcein: >10,000 Western: 2073 | > 10 | 4.72 | 7.36 ± 0.78 | 1.56 ± 0.31 | –
19 | COc1cc(CNCCO)cc(Br)c1OCc1ccccc1Cl [IND-0046380] | 5080 | 5080 | 2150 | 2150 | MW: 400.7 EC50 (nM): ELISA: 5080 Calcein: >10,000 Western: 2148 | > 10 | – | – | – | –
20 | Oc1ccc(/C=C/c2cc(O)cc(O)c2)cc1 [IND-0047971] | 2260 | 2260 | 584 | 584 | MW: 228.2 EC50 (nM): ELISA: 2260 Calcein: >10,000 Western: 584 | > 10 | – | – | – | –
21 | N#Cc1ccc(/C=C/c2ccc(F)cc2)cc1 [IND-0047979] | 1700 | 1700 | 528 | 528 | MW: 223.3 EC50 (nM): ELISA: 1700 Calcein: >10,000 Western: 528 | > 10 | – | – | – | –
22 | COc1ccc2cc3c(N)c(C(=O)Nc4ccc(C(C)=O)cc4)sc3nc2c1 [IND-0052025] | 57 | 57 | 61 | 61 | MW: 391.4 EC50 (nM): ELISA: 57 Calcein: >10,000 Western: 61 | > 10 | – | – | – | 74
23 | CCOc1ccc(C(=O)Nc2ccc3oc(-c4ccc(OC)cc4)nc3c2)cc1 [IND-0114138] | 65 | 65 | 134 | 134 | MW: 388.4 EC50 (nM): ELISA: 65 Calcein: >10,000 Western: 134 | > 10 | – | – | – | –
24 | COc1ccc(-c2nc3cc(NC(=O)c4ccc(OCc5ccccc5)cc4)ccc3o2)cc1 [IND-0114202] | 57 | 57 | 2560 | 2560 | MW: 450.5 EC50 (nM): ELISA: 57 Calcein: >10,000 Western: 2565 | > 10 | – | – | – | –
